Results taken from US20230295162A1 (EÖTVÖS LORÁND TUDOMÁNYEGYETEM, priority 2020, published 2023).
Where two headings read alike, the source gives them in different places.

Key:
[1] = tested on: MIA PaCa-2 (pancreas, carcinoma) cells; assay: Cell viability assay, CellTiter-Glo (Example 21); type: cell-based, human; details: 72 h treatment
Description: (§1) Effect of the selected compounds on cancer cell viability was measured via CellTiter-Glo® luminescent cell viability assay (Promega, Madison, WI, USA) according to the manufacturer's instructions. Cells were plated onto a flat-bottomed, white 96 well plate (BRANDplates®, cat. no.: 781965). Density of the seeded cells was optimized based on their size and growth rate, as the follows: Panc-1:750 cells/well; DU 145, PC-3, Capan-1, MIA PaCa-2, SCC-25, FaDu and EBC-1: 1000 cells/well; LNCaP, Detroit 562, MDA-MB-231 and MDA-MB-453 1500 cells/well. […] After the treatment, the luminescence signal was recorded using a microplate reader (BioTek Synergy 2 Multi-Mode Reader, BioTek, Winooski, VT, USA). Dose-response curves were generated by GraphPad Prism 8.4.2. software using a non-linear regression model (variable slope, four parameters), (see FIGS. 12-51).

[2] = tested on: Panc-1 (pancreas, carcinoma) cells; assay: Cell viability assay, CellTiter-Glo (Example 21); type: cell-based, human; details: 72 h treatment
Description: as §1

[3] = tested on: Detroit 562 (pharynx, carcinoma) cells; assay: Cell viability assay, CellTiter-Glo (Example 21); type: cell-based, human; details: 72 h treatment
Description: as §1

[4] = tested on: LNCaP (prostate, carcinoma) cells; assay: Cell viability assay, CellTiter-Glo (Example 21); type: cell-based, human; details: 72 h
Description: as §1

[5] = tested on: PC-3 (prostate, adenocarcinoma) cells; assay: Cell viability assay, CellTiter-Glo (Example 21); type: cell-based, human; details: 72 h treatment
Description: as §1

[6] = tested on: Capan-1 (pancreas, adenocarcinoma) cells; assay: Cell viability assay, CellTiter-Glo (Example 21); type: cell-based, human; details: 72 h treatment
Description: as §1

[7] = tested on: FaDu (pharynx, squamous cell carcinoma) cells; assay: Cell viability assay, CellTiter-Glo (Example 21); type: cell-based, human; details: 72 h treatment
Description: as §1

[8] = tested on: MDA-MB-231 (breast, adenocarcinoma) cells; assay: Cell viability assay, CellTiter-Glo (Example 21); type: cell-based, human; details: 72 h treatment
Description: as §1

[9] = tested on: DU 145 (prostate, carcinoma) cells; assay: Cell viability assay, CellTiter-Glo (Example 21); type: cell-based, human; details: 72 h
Description: as §1

[10] = tested on: MDA-MB-453 (breast, carcinoma) cells; assay: Cell viability assay, CellTiter-Glo (Example 21); type: cell-based, human; details: 72 h treatment
Description: as §1

[11] = tested on: SCC-25 (tongue, squamous cell carcinoma) cells; assay: Cell viability assay, CellTiter-Glo (Example 21); type: cell-based, human; details: 72 h treatment
Description: as §1

[12] = tested on: EBC-1 (lung, squamous cell carcinoma) cells; assay: Cell viability assay, CellTiter-Glo (Example 21); type: cell-based, human; details: 72 h treatment
Description: as §1

Panc-1 human cell line = assay: Cytotoxicity on Panc-1, xCELLigence SP, IC50 after 24 h, 48 h, 72 h and 96 h (Example 22)
[13] = tested on: A2058 (human metastatic melanoma) cells; assay: Colorimetric alamarBlue assay, long treatment; details: Homo sapiens, A2058, 72 h, read-out: cytotoxicity expressed in IC50, A-2058
[14] = tested on: EBC-1 lung cancer cell line; assay: High-throughput screening, CellTiter-Glo cell viability assay at 100 nM; type: cell-based, human; details: Homo sapiens, EBC-1, HTS, compounds at 100 nM, 72 h, read-out: cytotoxicity expressed in IC50, EBC-1 (results of High throughput screening)
Description: (§2) EBC-1 (obtained from JRCB, https://cellbank.nibiohn.go.jp/english/) and H2228 (obtained from ATCC https://www.lgcstandards-atcc.org/) cell lines were maintained according to the instructions provided by JRCB and ATCC in a 5% CO2 humidified incubator maintained at 37° C. temperature. Effect of compounds on cell viability was measured via CellTiter-Glo® luminescent cell viability assay (Promega, Madison, WI, USA). Cells were plated at 1000 cells/well onto a flat-bottomed, white 96 well plate (BRANDplates, cat. no.: 781965). After 24 h, cells were treated for 72 h with the compounds at 100 nM concentration. After the treatment, medium was removed and CellTiter-Glo® reagent was added. Untreated cells were used as control. The luminescence signal was recorded using a microplate reader (BioTek Synergy 2 Multi-Mode Reader, BioTek, Winooski, VT, USA). Cell viability data (% of untreated control cells) was evaluated with Microsoft Excel.

[15] = tested on: H2228 lung cancer cell line; assay: as above; type: cell-based, human; details: Homo sapiens, NCI-H2228, HTS, compounds at 100 nM, 72 h, read-out: cytotoxicity expressed in IC50, H2228 (results of High throughput screening)
Description: as §2

[16] = tested on: COLO-205 (human colorectal adenocarcinoma) cells; assay: Colorimetric alamarBlue assay, long treatment; details: COLO 205, 72 h, read-out: cytotoxicity expressed in IC50, COLO-205
[17] = tested on: PANC-1 (human pancreatic carcinoma) cells; assay: Impedance-based viability assay (xCELLigence SP), long treatment; type: cell-based; details: 72 h, read-out: cytotoxicity expressed in IC50, PANC-1
Text: (Gibco®/Invitrogen Corporation, New York, NY, USA).
Data obtained from each experiment represent mathematical averages.

## [N-]=[N+]=Nc1cccc(CN2CCC3=C(C2)C(=O)N(Cc2ccc(Cl)cc2)C2=NCCN23)c1 [I/133]
[1]; 3.7 nM
  MIA PaCa-2 (pancreas, carcinoma) cell viability (% of control): 104.0 ± 17.3 % of control
[1]; 11.1 nM
  MIA PaCa-2 (pancreas, carcinoma) cell viability (% of control): 92.1 ± 13.2 % of control
[1]; 100 nM
  MIA PaCa-2 (pancreas, carcinoma) cell viability (% of control): 18.4 ± 7.8 % of control
[1]; 300 nM
  MIA PaCa-2 (pancreas, carcinoma) cell viability (% of control): 17.4 ± 7.9 % of control
[2]; 3.7 nM
  Panc-1 (pancreas, carcinoma) cell viability (% of control): 108.9 ± 10.2 % of control
[2]; 11.1 nM
  Panc-1 (pancreas, carcinoma) cell viability (% of control): 94.1 ± 4.0 % of control
[2]; 100 nM
  Panc-1 (pancreas, carcinoma) cell viability (% of control): 56.1 ± 3.7 % of control
[2]; 300 nM
  Panc-1 (pancreas, carcinoma) cell viability (% of control): 55.7 ± 2.5 % of control
[3]; 3.7 nM
  Detroit 562 (pharynx, carcinoma) cell viability (% of control): 47.1 ± 16.0 % of control
[3]; 11.1 nM
  Detroit 562 (pharynx, carcinoma) cell viability (% of control): 31.1 ± 6.5 % of control
[3]; 100 nM
  Detroit 562 (pharynx, carcinoma) cell viability (% of control): 28.8 ± 3.6 % of control
[3]; 300 nM
  Detroit 562 (pharynx, carcinoma) cell viability (% of control): 31.3 ± 4.1 % of control
[4]; 3.7 nM
  LNCaP cell viability: 95.9 ± 6.1 % of control
[4]; 11.1 nM
  LNCaP cell viability: 33.4 ± 3.1 % of control
[4]; 100 nM
  LNCaP cell viability: 12.3 ± 1.1 % of control
[4]; 300 nM
  LNCaP cell viability: 13.3 ± 1.2 % of control
[5]; 3.7 nM
  PC-3 (prostate, adenocarcinoma) cell viability (% of control): 105.6 ± 1.8 % of control
[5]; 11.1 nM
  PC-3 (prostate, adenocarcinoma) cell viability (% of control): 83.5 ± 6.4 % of control
[5]; 100 nM
  PC-3 (prostate, adenocarcinoma) cell viability (% of control): 32.6 ± 3.3 % of control
[5]; 300 nM
  PC-3 (prostate, adenocarcinoma) cell viability (% of control): 32.9 ± 4.6 % of control
[6]; 3.7 nM
  Capan-1 (pancreas, adenocarcinoma) cell viability (% of control): 108.3 ± 8.3 % of control
[6]; 11.1 nM
  Capan-1 (pancreas, adenocarcinoma) cell viability (% of control): 98.8 ± 7.9 % of control
[6]; 100 nM
  Capan-1 (pancreas, adenocarcinoma) cell viability (% of control): 32.6 ± 4.0 % of control
[6]; 300 nM
  Capan-1 (pancreas, adenocarcinoma) cell viability (% of control): 34.0 ± 2.8 % of control
[7]; 3.7 nM
  FaDu (pharynx, squamous cell carcinoma) cell viability (% of control): 100.0 ± 6.2 % of control
[7]; 11.1 nM
  FaDu (pharynx, squamous cell carcinoma) cell viability (% of control): 70.7 ± 13.1 % of control
[7]; 100 nM
  FaDu (pharynx, squamous cell carcinoma) cell viability (% of control): 25.3 ± 6.4 % of control
[7]; 300 nM
  FaDu (pharynx, squamous cell carcinoma) cell viability (% of control): 24.6 ± 6.8 % of control
[8]; 3.7 nM
  MDA-MB-231 (breast, adenocarcinoma) cell viability (% of control): 101.4 ± 2.0 % of control
[8]; 11.1 nM
  MDA-MB-231 (breast, adenocarcinoma) cell viability (% of control): 100.4 ± 2.9 % of control
[8]; 100 nM
  MDA-MB-231 (breast, adenocarcinoma) cell viability (% of control): 58.2 ± 2.5 % of control
[8]; 300 nM
  MDA-MB-231 (breast, adenocarcinoma) cell viability (% of control): 56.4 ± 3.5 % of control
[9]; 3.7 nM
  DU 145 cell viability: 98.8 ± 6.7 % of control
[9]; 11.1 nM
  DU 145 cell viability: 45.7 ± 4.4 % of control
[9]; 100 nM
  DU 145 cell viability: 8.0 ± 2.0 % of control
[9]; 300 nM
  DU 145 cell viability: 8.1 ± 2.6 % of control
[10]; 3.7 nM
  MDA-MB-453 (breast, carcinoma) cell viability (% of control): 108.6 ± 19.7 % of control
[10]; 11.1 nM
  MDA-MB-453 (breast, carcinoma) cell viability (% of control): 50.1 ± 10.6 % of control
[10]; 100 nM
  MDA-MB-453 (breast, carcinoma) cell viability (% of control): 31.9 ± 1.3 % of control
[10]; 300 nM
  MDA-MB-453 (breast, carcinoma) cell viability (% of control): 31.7 ± 0.5 % of control
[11]; 3.7 nM
  SCC-25 (tongue, squamous cell carcinoma) cell viability (% of control): 102.3 ± 4.2 % of control
[11]; 11.1 nM
  SCC-25 (tongue, squamous cell carcinoma) cell viability (% of control): 72.9 ± 3.0 % of control
[11]; 100 nM
  SCC-25 (tongue, squamous cell carcinoma) cell viability (% of control): 34.7 ± 4.9 % of control
[11]; 300 nM
  SCC-25 (tongue, squamous cell carcinoma) cell viability (% of control): 40.9 ± 3.7 % of control
[12]; 3.7 nM
  EBC-1 (lung, squamous cell carcinoma) cell viability (% of control): 97.1 ± 6.0 % of control
[12]; 11.1 nM
  EBC-1 (lung, squamous cell carcinoma) cell viability (% of control): 60.1 ± 6.7 % of control
[12]; 100 nM
  EBC-1 (lung, squamous cell carcinoma) cell viability (% of control): 23.2 ± 0.7 % of control
[12]; 300 nM
  EBC-1 (lung, squamous cell carcinoma) cell viability (% of control): 22.2 ± 1.3 % of control
Panc-1 human cell line; PANC-1, 72 h, read-out: IC50 (72 h) [nM]
  IC50: 9.05 ± 0.669 nM
Panc-1 human cell line; PANC-1, 96 h, read-out: IC50 (96 h) [nM]
  IC50: 4.73 ± 0.109 nM

## O=C1C2=C(CCN(Cc3ccccc3)C2)N2CCN=C2N1Cc1ccccc1I [I/11]
[13]
  IC50: > 10000 nM
[14]
  IC50: > 100 nM
[15]
  IC50: > 100 nM
[16]
  IC50: > 10000 nM
[17]
  IC50: > 10000 nM

## O=C1C2=C(CCN(Cc3ccccc3)C2)N2CCN=C2N1Cc1ccc([N+](=O)[O-])cc1F [I/48]
[13]
  IC50: 500 nM
[14]
  IC50: > 100 nM
[15]
  IC50: > 100 nM
[16]
  IC50: 25000 nM
[17]
  IC50: 6160 nM

## O=C1C2=C(CCN(Cc3ccccc3)C2)N2CCN=C2N1Cc1ccccc1F [I/2, reference compound]
[13]
  IC50: 2950 nM
[14]
  IC50: > 100 nM
[15]
  IC50: > 100 nM
[16]
  IC50: 9970 nM
[17]
  IC50: 4180 nM

## Cc1ccccc1CN1C(=O)C2=C(CCN(Cc3ccc(C(F)(F)F)c(F)c3)C2)N2CCN=C12 [I/43]
[13]
  IC50: > 10000 nM
[14]
  IC50: > 100 nM
[15]
  IC50: > 100 nM
[16]
  IC50: > 10000 nM
[17]
  IC50: > 10000 nM

## NCc1cccc(CN2C(=O)C3=C(CCN(Cc4ccc(C(F)(F)F)cc4)C3)N3CCN=C23)c1 [I/68]
[13]
  IC50: > 10000 nM
[14]
  IC50: > 100 nM
[15]
  IC50: > 100 nM
[16]
  IC50: > 10000 nM
[17]
  IC50: > 10000 nM
